Patent US20020164620A1, “Method for identifying compounds modulating sister chromatid separation” (Boehringer Ingelheim International GmbH, priority 2001, published 2002)
“Also recorded” adds a separate entry of the source. No end group written: not given here. *: point of attachment. acyloxymethyl ketone = C-terminal acyloxymethyl ketone; Biotin = O=C1N[C@H]2[C@H](CS[C@H]2CCCCC(=O)*)N1

Key:
human separase [1] = biological target: human separase (Homo sapiens, UniProt Q14674); details: same concentration at which SCC1 cleavage was inhibited
Method: A. Mitotically activated separase immunoprecipitates were preincubated with yeast peptides (Uhlmann et al., 2000) before they were used in the SCC1-cleavage assay. Biotin-SVEQGR-amk or Biotin-SVEQGR-cmk were used at different concentration (0.1, 1, 10, 100, 1000 μM in XB+0.5 mM DTT). Separase immunoprecipitates were incubated for 10 minutes, 22° C. and 1200 rpm. The SCC1 in vitro cleavage assay was performed after washing once with XB+0.5 mM DTT (see above). Human peptides, Biotin-DREIMR-amk or DREIMR-amk, were diluted and used as above described for the yeast peptides.

human separase [2] = assay: SCC1 in vitro cleavage assay; format: biochemical
Method: 30 microliter beads were incubated with 40 μg bacterially expressed wildtype securin, destruction box deleted form of securin (Gmachl et al., 2000) or BSA diluted in XB+1 mM DTT for 40 min at RT. Subsequently the beads were washed with XB+1 mM DTT and with TBS+0.5 M NaCl+1 mM DTT+0.5% TWEEN20, followed by one wash with XB+1 mM DTT. To control the rebinding of securin an aliquot of 5 μl was taken per assay and subsequently analysed by immunoblotting with antibodies against separase and securin.
The beads were used for the SCC1 in vitro cleavage assay: 20 μl beads were mixed with 30 μl of the following SCC1 in vitro translation mix (SCC1 myc IVT+1 μl PLK-GST+0.3 μl […], 0.3 μl 100 mM ATP, 0.12 μl 250 mM EGTA, 13.78 μl XB+1 mM DTT) and incubated at 22° C. and 1200 rpm. 5 μl were taken per time point, the reaction was stopped by addition of SDS loading buffer. Samples were analyzed by immunoblotting with mouse monoclonal antibodies against myc (9E10).
(§1) B. Separase immunoprecipitates were incubated with 100 μM Biotin-SVEQGR-amk or with DMSO prior mitotic activation. Incubation for 10 minutes, 22° C. and 1000 rpm. After washing twice in XB+1 mM DTT the activation was performed in mitotic Xenopus egg extracts.
(§2) Interphase Xenopus egg extracts were driven into mitosis in the presence of 1 mM Biotin-SVEQGR-amk or DMSO. Those mitotic Xenopus egg extracts were used to activate a batch of separase immunoprecipitates.

human separase [3] = assay: Covalent labelling of separase forms by biotin peptide (avidin blot); format: binding
Method: as §1, §2
Biotin labeled peptides were detected via immunoblotting according to Faleiro et al., 1997.
C. Mitotically activated separase immunoprecipitates were preincubated with either 8 μg recombinant securin or with 8 μg of a C-terminal truncated version of cyclinB in 100 μl XB+1 mM DTT for 30 min at 22° C. and 1250 rpm. Subsequently the beads were washed twice with TBS+0.5 M NaCl+1 mM DTT+0.5% Tween 20 and twice with XB+1 mM DTT. Thereafter beads were incubated with 100 μl of 100 μM Bio-DREIMR-amk in XB+[…]. After 10 min incubation at 22° C. and 1250 rpm beads were again washed and analyzed by immunoblotting.
FIG. 4B: Separase IPs (see A) were either preincubated with Biotin-SVEQGR-amk (preinc. with inh. peptide) or with DMSO (preinc. with DMSO), subsequently washed and aliquots were taken. Thereafter they were incubated in mitotic Xenopus egg extracts and washed again. Samples were taken for analysis (1i, 1c). Separase IPs were activated either in mitotic Xenopus egg extracts which were driven into mitosis in the presence of Biotin-SVEQGR-amk or DMSO, subsequently washed and aliquots were taken for analysis (2i, 2c). Already mitotically activated separase IPs (see A) were incubated with Biotin-SVEQGR-amk or DMSO, thereafter washed and aliquots were taken for analysis (3i, 3c). All samples were analysed by immunoblotting with avidin.
FIG. 4D: Activated separase immunoprecipitates bound by antibodies against the C-terminus of separase to beads were first incubated with recombinant securin or, for control, with recombinant truncated cyclinB. […] Thereafter, the immunoprecipitates were again washed and analyzed by immunoblotting.

[4] = activation in mitotic Xenopus extracts in presence of peptide (lane 2i)
[5] = substance added to mitotically activated separase immunoprecipitates before SCC1-myc reaction mix

Chain of human separase (Q14674 1536-2120 limits assumed): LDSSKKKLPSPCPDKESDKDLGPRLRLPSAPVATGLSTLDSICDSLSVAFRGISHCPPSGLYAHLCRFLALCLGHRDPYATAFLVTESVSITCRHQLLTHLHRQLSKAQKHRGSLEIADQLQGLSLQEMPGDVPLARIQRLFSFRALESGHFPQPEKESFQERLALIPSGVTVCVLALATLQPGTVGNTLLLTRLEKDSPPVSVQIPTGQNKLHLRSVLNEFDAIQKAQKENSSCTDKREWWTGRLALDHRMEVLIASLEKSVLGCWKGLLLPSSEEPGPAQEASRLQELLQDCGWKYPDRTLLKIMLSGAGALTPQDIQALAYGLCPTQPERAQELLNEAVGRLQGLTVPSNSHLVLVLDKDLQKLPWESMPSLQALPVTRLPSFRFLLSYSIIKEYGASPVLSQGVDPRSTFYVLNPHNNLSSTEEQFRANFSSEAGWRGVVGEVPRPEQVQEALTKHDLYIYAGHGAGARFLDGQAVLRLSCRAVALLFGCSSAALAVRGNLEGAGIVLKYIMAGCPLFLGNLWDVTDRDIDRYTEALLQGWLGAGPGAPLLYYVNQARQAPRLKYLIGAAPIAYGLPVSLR
Chain of human separase (Homo sapiens, UniProt Q14674) (Q14674 whole entry): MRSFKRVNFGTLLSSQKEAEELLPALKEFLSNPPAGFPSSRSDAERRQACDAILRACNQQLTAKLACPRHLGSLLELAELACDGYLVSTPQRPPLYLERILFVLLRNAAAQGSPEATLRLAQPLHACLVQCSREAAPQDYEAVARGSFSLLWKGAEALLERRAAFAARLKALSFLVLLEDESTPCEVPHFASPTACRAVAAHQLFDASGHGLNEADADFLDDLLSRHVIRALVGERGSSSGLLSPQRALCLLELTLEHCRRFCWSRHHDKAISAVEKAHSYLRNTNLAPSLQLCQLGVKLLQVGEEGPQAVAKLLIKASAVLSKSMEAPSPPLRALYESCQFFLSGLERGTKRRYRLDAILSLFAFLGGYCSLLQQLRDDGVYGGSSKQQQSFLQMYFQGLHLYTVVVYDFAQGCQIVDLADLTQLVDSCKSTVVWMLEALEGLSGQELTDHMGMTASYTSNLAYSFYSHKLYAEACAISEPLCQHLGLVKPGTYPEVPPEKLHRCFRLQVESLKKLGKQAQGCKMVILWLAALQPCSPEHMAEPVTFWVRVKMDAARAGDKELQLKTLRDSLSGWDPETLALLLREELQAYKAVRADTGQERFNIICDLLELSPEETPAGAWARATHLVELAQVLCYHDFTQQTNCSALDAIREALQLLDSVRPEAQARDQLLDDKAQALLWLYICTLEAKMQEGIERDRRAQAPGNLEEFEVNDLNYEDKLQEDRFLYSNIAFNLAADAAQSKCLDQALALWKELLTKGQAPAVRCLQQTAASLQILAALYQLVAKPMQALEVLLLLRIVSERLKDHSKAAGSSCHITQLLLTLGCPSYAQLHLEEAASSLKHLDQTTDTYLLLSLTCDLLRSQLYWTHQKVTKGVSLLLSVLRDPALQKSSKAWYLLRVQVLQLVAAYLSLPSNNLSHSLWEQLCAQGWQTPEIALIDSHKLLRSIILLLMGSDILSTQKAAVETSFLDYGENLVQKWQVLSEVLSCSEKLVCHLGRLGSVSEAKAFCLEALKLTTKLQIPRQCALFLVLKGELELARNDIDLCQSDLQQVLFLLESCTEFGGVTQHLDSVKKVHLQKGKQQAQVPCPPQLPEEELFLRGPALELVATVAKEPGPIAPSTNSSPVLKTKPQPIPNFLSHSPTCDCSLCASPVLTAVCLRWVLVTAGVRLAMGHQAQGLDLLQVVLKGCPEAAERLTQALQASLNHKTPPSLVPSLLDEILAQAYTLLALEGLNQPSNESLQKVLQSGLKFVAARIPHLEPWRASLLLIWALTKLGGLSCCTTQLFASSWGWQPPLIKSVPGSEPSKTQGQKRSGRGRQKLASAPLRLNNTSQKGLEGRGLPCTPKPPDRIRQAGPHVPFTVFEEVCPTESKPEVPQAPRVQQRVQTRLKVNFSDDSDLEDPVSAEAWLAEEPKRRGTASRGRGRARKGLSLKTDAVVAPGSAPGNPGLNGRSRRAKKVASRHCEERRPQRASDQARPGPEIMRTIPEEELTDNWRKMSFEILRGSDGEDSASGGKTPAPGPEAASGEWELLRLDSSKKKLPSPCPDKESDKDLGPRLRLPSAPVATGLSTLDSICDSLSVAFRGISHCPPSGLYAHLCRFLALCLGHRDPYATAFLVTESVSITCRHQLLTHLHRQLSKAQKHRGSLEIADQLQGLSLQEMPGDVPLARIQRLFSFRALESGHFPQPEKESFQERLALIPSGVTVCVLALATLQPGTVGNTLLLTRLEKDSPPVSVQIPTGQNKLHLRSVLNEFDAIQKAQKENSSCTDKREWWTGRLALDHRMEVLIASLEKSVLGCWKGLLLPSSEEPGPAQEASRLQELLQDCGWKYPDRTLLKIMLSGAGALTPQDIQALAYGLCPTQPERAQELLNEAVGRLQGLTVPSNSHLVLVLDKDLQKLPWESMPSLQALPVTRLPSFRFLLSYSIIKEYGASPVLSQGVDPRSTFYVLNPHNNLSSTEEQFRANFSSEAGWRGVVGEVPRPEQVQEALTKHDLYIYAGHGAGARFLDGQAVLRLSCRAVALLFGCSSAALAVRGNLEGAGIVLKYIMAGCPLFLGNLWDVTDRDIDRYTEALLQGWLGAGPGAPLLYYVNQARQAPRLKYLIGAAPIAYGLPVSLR

Substance	formation of the p55 cleavage product of human separase (human separase [1])	relative effectiveness of the two yeast peptide inhibitors (human separase [2])	SCC1 cleavage by separase (human separase [2]; [4])	SCC1 cleavage by separase (human separase [2]; peptide added before activation and washed away before mitotic Xenopus extract (lane 1i))	SCC1 cleavage by separase (human separase [2]; [5])	separase forms labeled by the peptide (human separase [3]; [4])	separase forms bound by the peptide (human separase [3]; peptide added after activation in mitotic Xenopus extracts (lane 3i))	separase forms labeled by the peptide (human separase [3]; peptide added before activation in mitotic Xenopus extracts (lane 1i))
Bio-SVEQGR-amk: synthetic peptide with budding yeast SCC1 cleavage site SVEQGR, C-terminal acyloxymethyl ketone, N-terminal biotin (Biotin-SVEQGR-{acyloxymethyl ketone})	largely inhibited	the more effective one of the two yeast peptide inhibitors	separase was unable to cleave SCC1	separase could be activated normally to cleave SCC1	inhibited SCC1 cleavage by separase; also recorded: able to block the ability of separase to cleave SCC1	both the cleaved forms of separase and full-length separase were covalently labeled	bound exclusively to the cleaved forms of human separase	only the small amount of p60 that is already present in these immunoprecipitates was labeled
DREIMR-amk: peptide inhibitor based on the cleavage recognition site of human SCC1, DREIMR, acyloxymethyl ketone (DREIMR-{acyloxymethyl ketone})					able to inhibit separase at a similar concentration as the peptide inhibitors derived from yeast			
